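Method: 48-hour compound exposure of cells in 96-well plates, five concentrations, linear interpolation of endpoints. GI50 is the concentration that inhibits growth by half. At the TGI there is no net growth.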
Legend:
Assay in all cases: DTP human tumour cell line panel, 48 h
[1] = system: HT29 colon
[2] = system: MCF7 breast
[3] = system: NCI-H522 lung
[4] = system: OVCAR-8 ovarian
[5] = system: SF-268 CNS
[6] = system: SK-MEL-2 melanoma
[7] = system: SNB-75 CNS
[8] = system: SR leukemia
[9] = system: T-47D breast
[10] = system: UACC-62 melanoma

| Structure (SMILES) | TGI [1] | TGI [2] | TGI [3] | TGI [4] | TGI [5] | TGI [6] | TGI [7] | TGI [8] | TGI [9] | TGI [10] | GI50 [1] | GI50 [2] | GI50 [3] | GI50 [4] | GI50 [5] | GI50 [6] | GI50 [7] | GI50 [8] | GI50 [9] | GI50 [10] |
| --- | --- | --- | --- | --- | --- | --- | --- | --- | --- | --- | --- | --- | --- | --- | --- | --- | --- | --- | --- | --- |
| CC1(C)OCC2OC(n3cnc4c(N)nc(Cl)nc43)C(OS(C)(=O)=O)C2O1 (configuration not stated) | > 100 µM | > 100 µM | > 100 µM | > 100 µM | > 100 µM | > 100 µM | > 100 µM | > 100 µM | > 100 µM | > 100 µM | – | – | – | – | – | – | – | – | – | – |
| O=C1C=CC2C3C(=O)N(c4ccccc4)C(=O)C3C1N2Cc1ccccc1 (configuration not stated) | 4.47 µM | 11.5 µM | 7.64 µM | 10.1 µM | 8.85 µM | 9.29 µM | 15.7 µM | 7 µM | 18.2 µM | 6.19 µM | 2.07 µM | 3.19 µM | 2.68 µM | 2.88 µM | 3.34 µM | 4.37 µM | 4.19 µM | 1.87 µM | 4.93 µM | 2.01 µM |
| COC(=O)CC[C@@H](C)[C@H]1CC[C@H]2[C@@H]3CC[C@@H]4C[C@H](O)CC[C@]4(C)[C@H]3CC[C@]12C | 31.9 µM | 36.3 µM | 46.8 µM | 38.2 µM | 43.2 µM | 34.2 µM | 36.1 µM | 52.1 µM | 36 µM | 34.3 µM | – | – | – | – | – | – | – | – | – | – |
| COc1ccc2c3ccnc(C(F)(F)F)c3n(CCCCN)c2c1 | 15.8 µM | 17.4 µM | 21.4 µM | 26.4 µM | 21.5 µM | 35.7 µM | 12.8 µM | 9.52 µM | 23.8 µM | 23.2 µM | 4.01 µM | 4.61 µM | 6.22 µM | 8.95 µM | 6.62 µM | 16.8 µM | 2.19 µM | 2.64 µM | 6.86 µM | 10.8 µM |
| Nc1nc(-c2ccc3c(c2)/C(=C\c2cc(Br)c(O)c(Br)c2)C(=O)N3)cs1 | > 25 µM | > 25 µM | 19.4 µM | > 25 µM | > 25 µM | > 17.6 µM | > 25 µM | > 25 µM | > 25 µM | 23.7 µM | 11.2 µM | 12.8 µM | 8.12 µM | > 25 µM | 16.3 µM | 6.96 µM | 11.8 µM | 11.3 µM | 15.1 µM | 6.89 µM |
| COc1cccc(N2CC(O)=C(c3nc4ccccc4s3)C2=N)c1 | > 39.3 µM | > 100 µM | – | 65.9 µM | > 94.5 µM | > 100 µM | 1.98 µM | > 100 µM | > 100 µM | 2.61 µM | 0.252 µM | 0.289 µM | 0.0588 µM | 0.838 µM | 1.51 µM | 7.14 µM | – | – | 46.5 µM | 0.239 µM |
| CCOC(=O)C1=C(Nc2ccc(OC)cc2)C(N)=NC1=N | > 100 µM | > 100 µM | > 100 µM | > 100 µM | > 100 µM | > 100 µM | > 100 µM | > 100 µM | > 100 µM | > 100 µM | 2.9 µM | 0.587 µM | 3.12 µM | 4.63 µM | 7.87 µM | 8.03 µM | 3.03 µM | 2.31 µM | > 100 µM | 2.85 µM |
| COc1cc2c(cc1OCC(=O)Nc1ccc(Cl)cc1C(=O)c1ccccc1Cl)N=CC1CCCN1C2=O (configuration not stated) | 34.2 µM | 17.5 µM | 7.17 µM | 26.3 µM | 33 µM | 19.6 µM | 28.8 µM | 28 µM | 22.2 µM | 29.2 µM | 11.9 µM | 5.27 µM | 2.59 µM | 12 µM | 12.9 µM | 7.4 µM | 14.2 µM | 3.7 µM | 5.21 µM | 15.2 µM |
| CCCCCCCCN(CCCCCCCC)CC(O)c1cc(-c2ccccc2)nc2ccc(OC)cc12 (configuration not stated) | > 100 µM | > 100 µM | > 100 µM | > 100 µM | > 100 µM | > 100 µM | > 100 µM | 97.3 µM | > 100 µM | > 100 µM | 18.3 µM | 38.9 µM | 53.4 µM | 32.2 µM | 28.7 µM | 50.3 µM | > 100 µM | 10.1 µM | 25.6 µM | 21.5 µM |
| Cc1nnc(N/N=C/c2ccc([N+](=O)[O-])o2)[nH]c1=O | > 100 µM | > 100 µM | 5.58 µM | > 100 µM | > 57.9 µM | > 48.8 µM | 67.5 µM | > 100 µM | 13.8 µM | 7.75 µM | 3.63 µM | 1.24 µM | 0.914 µM | 0.785 µM | 0.521 µM | 3.14 µM | 1.36 µM | 1.1 µM | 1.07 µM | 0.666 µM |
| CCN(CC)CCOc1nc2ccccc2c2c1-c1ccc(OC)cc1C2=O | 1.54 µM | 2.23 µM | 2.4 µM | 5.7 µM | 2.05 µM | 4.36 µM | 5.19 µM | 1.07 µM | 8.8 µM | 4.48 µM | 0.334 µM | 0.345 µM | 0.613 µM | 0.527 µM | 0.445 µM | 2.14 µM | 1.44 µM | 0.316 µM | 2.51 µM | 1.7 µM |
| Cc1ccc2ccccc2c1CSc1nc(N)nc2c1ncn2CC(C)C | > 100 µM | > 63.9 µM | 96.9 µM | > 100 µM | > 100 µM | > 73.9 µM | > 100 µM | 50.6 µM | > 47.8 µM | > 100 µM | – | – | – | – | – | – | – | – | – | – |
| Cc1cc(N(CCC#N)S(=O)(=O)c2ccccc2)ccc1C=Nc1ccc(C(=O)O)cc1 | 45.6 µM | > 100 µM | 9.13 µM | 15.5 µM | > 60.7 µM | 22.3 µM | 29.1 µM | > 40.9 µM | > 100 µM | 37.1 µM | – | – | – | – | – | – | – | – | – | – |
| O=C(Nc1ccc(Br)c2ccccc12)c1ccc2ccccc2c1O | 15.3 µM | 25.8 µM | 6.83 µM | 19.2 µM | 31.8 µM | 3 µM | 8.68 µM | > 100 µM | 14.5 µM | 15 µM | – | – | – | – | – | – | – | – | – | – |
| CC(=O)OC1CC2(C)C(=CC1C1SCCS1)CCC1C2CCC2(C)C(OC(C)=O)CCC12 (configuration not stated) | > 100 µM | > 100 µM | > 100 µM | > 100 µM | > 100 µM | > 100 µM | 63.1 µM | > 100 µM | > 100 µM | > 100 µM | – | – | – | – | – | – | – | – | – | – |
| OC(c1cc(C(F)(F)F)nc2c(Cl)cc(Cl)cc12)C1CCCCN1 (configuration not stated) | > 38.9 µM | > 25.8 µM | > 21 µM | 32.5 µM | > 40.7 µM | > 43.8 µM | 24.4 µM | 5.32 µM | 19 µM | > 47.7 µM | – | – | – | – | – | – | – | – | – | – |
| Cn1nc(C(F)(F)F)cc1-c1cc(Cl)c(OCc2ccc(Cl)cc2)c(-c2ccc(Cl)c(C(F)(F)F)c2)c1O | 5.92 µM | 5.33 µM | 5.09 µM | 5.41 µM | 5.47 µM | 2.34 µM | 2.68 µM | 2.11 µM | 2.96 µM | 2.51 µM | 1.4 µM | 1.01 µM | 0.731 µM | 1.2 µM | 1.24 µM | 0.919 µM | 0.984 µM | 0.651 µM | 0.435 µM | 0.91 µM |
| Clc1cnc(Nc2ccc(OCCN3CCCC3)cc2)nc1NCc1ccco1 | 9.18 µM | 10.2 µM | 3.96 µM | 13.7 µM | 6.47 µM | 3.48 µM | 4.27 µM | 6.61 µM | 10.6 µM | 3.73 µM | 2.19 µM | 1.51 µM | 1.75 µM | 3.54 µM | 2.33 µM | 1.8 µM | 1.91 µM | 1.4 µM | 3.14 µM | 1.83 µM |

From PubChem BioAssay (NCI)
